Source: patent US7008905B2, “Method of combating undesired plant growth on cereals” (BASF Aktiengesellschaft, priority 2000, dated 2006)

Experiments:
Format in all cases: in vivo
[1] = test system: wheat; assay: Pre-emergence test, tolerance in wheat; conditions: in vivo
Protocol: (§1) The pre-emergence tests involve spraying a liquid formulation of the compound onto the soil in which the seeds of the plant species mentioned above has recently been sown.
(§2) The soil used in the tests is a prepared horticultural loam. The formulations used in the tests are prepared from solutions of the test compounds in acetone containing 0.4% by weight of an alkylphenol/ethylene oxide condensate available under the trade mark TRITON X-155.
(§3) These acetone solutions are diluted with water and the resulting formulations applied at dosage levels corresponding to 15 g, 30 g, 60 g, 120 g or 240 g of active material per hectare in a volume equivalent to 900 liters per hectare. In these tests untreated sown soil is used as control. The herbicidal effects of the test compounds are assessed visually three weeks after spraying the soil and are recorded an a 0 to 100 scale. A rating 0 indicates growth as untreated control, a rating 100 indicates death. An increase of 10 unit an the linear scale approximates to a 10% increase in the level of effect. The results of the assessment are set out in Tables 1 to 4.

[2] = test system: Triticum aestivum variety “Kanzler”; assay: Pre-emergence test, selectivity; conditions: 3 weeks after treatment, rating 0-100 (100=death), Table 4
Protocol: as §1, §2, §3

[3] = test system: Triticum aestivum variety “Monopol”; assay: Pre-emergence test, selectivity; conditions: 3 weeks after treatment, rating 0-100 (100=death), Table 4
Protocol: as §1, §2, §3

[4] = test system: PAPRH; assay: Pre-emergence test, weed control; conditions: 3 weeks after treatment, rating 0-100 (100=death), Table 3
Protocol: as §1, §2, §3

[5] = test system: VIOAR; assay: Pre-emergence test, weed control; conditions: 3 weeks after treatment, rating 0-100 (100=death), Table 3
Protocol: as §1, §2, §3

[6] = test system: Apera spica-venti; assay: Pre-emergence test, weed control; conditions: 3 weeks after treatment, rating 0-100 (100=death), Table 3
Protocol: as §1, §2
(§4) In these tests untreated sown soil is used as control. The herbicidal effects of the test compounds are assessed visually three weeks after spraying the soil and are recorded an a 0 to 100 scale. A rating 0 indicates growth as untreated control, a rating 100 indicates death. An increase of 10 unit an the linear scale approximates to a 10% increase in the level of effect. The results of the assessment are set out in Tables 1 to 4.

[7] = test system: Lolium perenne; assay: Pre-emergence test, weed control; conditions: 3 weeks after treatment, rating 0-100 (100=death), Table 3
Protocol: as §1, §2, §4

[8] = test system: Lamium purpureum; assay: Pre-emergence test, weed control; conditions: 3 weeks after treatment, rating 0-100 (100=death), Table 3
Protocol: as §1, §2, §4

[9] = test system: Setaria viridis; assay: Pre-emergence test, weed control; conditions: 3 weeks after treatment, rating 0-100 (100=death), Table 3
Protocol: as §1, §2, §4

[10] = test system: Poa annua; assay: Pre-emergence test, weed control; conditions: 3 weeks after treatment, rating 0-100 (100=death), Table 3
Protocol: as §1, §2, §4

[11] = test system: Galium aparine; assay: Pre-emergence test, weed control; conditions: 3 weeks after treatment, rating 0-100 (100=death), Table 3
Protocol: as §1, §2, §4

[12] = test system: Stellaria media; assay: Pre-emergence test, weed control; conditions: 3 weeks after treatment, rating 0-100 (100=death), Table 3
Protocol: as §1, §2, §4

[13] = test system: Alopecurus myosuroides; assay: Pre-emergence test, weed control; conditions: 3 weeks after treatment, rating 0-100 (100=death), Table 3
Protocol: as §1, §2, §4

[14] = test system: Matricaria inodora; assay: Pre-emergence test, weed control; conditions: 3 weeks after treatment, rating 0-100 (100=death), Table 3
Protocol: as §1, §2, §4

[15] = test system: Veronica persica; assay: Pre-emergence test, weed control; conditions: 3 weeks after treatment, rating 0-100 (100=death), Table 3
Protocol: as §1, §2, §4

With `Cc1cnc(-c2ccc(C(F)(F)F)cc2)nc1Oc1ccnc(Cl)c1` [REF-4] the “maximum tolerated dose in wheat / dose at which sufficiently selective in wheat” value [1] was 60 g/ha, the “TRZAWK rating (Selectivity)” value ([2]; 0.030 kg/ha) was 10 and the “TRZAWK rating (Selectivity)” value ([2]; 0.060 kg/ha) was 15. The “TRZAWK rating (Selectivity)” value ([2]; 0.120 kg/ha) was 22, the “TRZAWK rating (Selectivity)” value ([2]; 0.240 kg/ha) was 22 and the “TRZAWM rating (Selectivity)” value ([3]; 0.030 kg/ha) was 15. For the same molecule, the “TRZAWM rating (Selectivity)” value ([3]; 0.060 kg/ha) was 8, the “TRZAWM rating (Selectivity)” value ([3]; 0.120 kg/ha) was 22 and the “TRZAWM rating (Selectivity)” value ([3]; 0.240 kg/ha) was 35. The “PAPRH weed control rating” value ([4]; 0.030 kg/ha) was 100, the “PAPRH weed control rating” value ([4]; 0.060 kg/ha) was 100 and the “PAPRH weed control rating” value ([4]; 0.120 kg/ha) was 100. The “PAPRH weed control rating” value ([4]; 0.240 kg/ha) was 100, the “VIOAR weed control rating” value ([5]; 0.030 kg/ha) was 99 and the “VIOAR weed control rating” value ([5]; 0.060 kg/ha) was 100. For the same molecule, the “VIOAR weed control rating” value ([5]; 0.120 kg/ha) was 100, the “VIOAR weed control rating” value ([5]; 0.240 kg/ha) was 100 and the “APESV weed control rating” value ([6]; 0.030 kg/ha) was 100. The “APESV weed control rating” value ([6]; 0.060 kg/ha) was 100, the “APESV weed control rating” value ([6]; 0.120 kg/ha) was 100 and the “APESV weed control rating” value ([6]; 0.240 kg/ha) was 100. The “LOLPE weed control rating” value ([7]; 0.030 kg/ha) was 98, the “LOLPE weed control rating” value ([7]; 0.060 kg/ha) was 98 and the “LOLPE weed control rating” value ([7]; 0.120 kg/ha) was 100. For the same molecule, the “LOLPE weed control rating” value ([7]; 0.240 kg/ha) was 100, the “LAMPU weed control rating” value ([8]; 0.030 kg/ha) was 97 and the “LAMPU weed control rating” value ([8]; 0.060 kg/ha) was 100. The “LAMPU weed control rating” value ([8]; 0.120 kg/ha) was 100, the “LAMPU weed control rating” value ([8]; 0.240 kg/ha) was 100 and the “SETVI weed control rating” value ([9]; 0.030 kg/ha) was 65. For the same molecule, the “SETVI weed control rating” value ([9]; 0.060 kg/ha) was 80, the “SETVI weed control rating” value ([9]; 0.120 kg/ha) was 100 and the “SETVI weed control rating” value ([9]; 0.240 kg/ha) was 100. For the same molecule, the “POAAN weed control rating” value ([10]; 0.030 kg/ha) was 100, the “POAAN weed control rating” value ([10]; 0.060 kg/ha) was 100 and the “POAAN weed control rating” value ([10]; 0.120 kg/ha) was 100. For the same molecule, the “POAAN weed control rating” value ([10]; 0.240 kg/ha) was 100, the “GALAP weed control rating” value ([11]; 0.240 kg/ha) was 90 and the “STEME weed control rating” value ([12]; 0.030 kg/ha) was 92. The “STEME weed control rating” value ([12]; 0.060 kg/ha) was 100, the “STEME weed control rating” value ([12]; 0.120 kg/ha) was 100 and the “STEME weed control rating” value ([12]; 0.240 kg/ha) was 100. The “ALOMY weed control rating” value ([13]; 0.030 kg/ha) was 20, the “ALOMY weed control rating” value ([13]; 0.060 kg/ha) was 92 and the “ALOMY weed control rating” value ([13]; 0.120 kg/ha) was 93. For the same molecule, the “ALOMY weed control rating” value ([13]; 0.240 kg/ha) was 98, the “MATIN weed control rating” value ([14]; 0.030 kg/ha) was 100 and the “MATIN weed control rating” value ([14]; 0.060 kg/ha) was 100. For the same molecule, the “MATIN weed control rating” value ([14]; 0.120 kg/ha) was 100, the “MATIN weed control rating” value ([14]; 0.240 kg/ha) was 100 and the “VERPE weed control rating” value ([15]; 0.030 kg/ha) was 98. The “VERPE weed control rating” value ([15]; 0.060 kg/ha) was 100, the “VERPE weed control rating” value ([15]; 0.120 kg/ha) was 100 and the “VERPE weed control rating” value ([15]; 0.240 kg/ha) was 100.
In the case of `CSc1cc(Oc2ccnc(Cl)c2)nc(-c2ccc(C(F)(F)F)cc2)n1` [REF-7], the “maximum tolerated dose in wheat / dose at which sufficiently selective in wheat” value [1] is reported as 240 g/ha, the “TRZAWK rating (Selectivity)” value ([2]; 0.030 kg/ha) is reported as 2 and the “TRZAWK rating (Selectivity)” value ([2]; 0.060 kg/ha) is reported as 5. The “TRZAWK rating (Selectivity)” value ([2]; 0.120 kg/ha) was 5, the “TRZAWK rating (Selectivity)” value ([2]; 0.240 kg/ha) was 18 and the “TRZAWM rating (Selectivity)” value ([3]; 0.030 kg/ha) was 2. For the same molecule, the “TRZAWM rating (Selectivity)” value ([3]; 0.060 kg/ha) was 5, the “TRZAWM rating (Selectivity)” value ([3]; 0.120 kg/ha) was 5 and the “TRZAWM rating (Selectivity)” value ([3]; 0.240 kg/ha) was 10. The “PAPRH weed control rating” value ([4]; 0.030 kg/ha) was 95, the “PAPRH weed control rating” value ([4]; 0.060 kg/ha) was 100 and the “PAPRH weed control rating” value ([4]; 0.120 kg/ha) was 100. For the same molecule, the “PAPRH weed control rating” value ([4]; 0.240 kg/ha) was 100, the “VIOAR weed control rating” value ([5]; 0.030 kg/ha) was 98 and the “VIOAR weed control rating” value ([5]; 0.060 kg/ha) was 99. For the same molecule, the “VIOAR weed control rating” value ([5]; 0.120 kg/ha) was 99, the “VIOAR weed control rating” value ([5]; 0.240 kg/ha) was 99 and the “APESV weed control rating” value ([6]; 0.030 kg/ha) was 100. The “APESV weed control rating” value ([6]; 0.060 kg/ha) was 100, the “APESV weed control rating” value ([6]; 0.120 kg/ha) was 100 and the “APESV weed control rating” value ([6]; 0.240 kg/ha) was 100. For the same molecule, the “LOLPE weed control rating” value ([7]; 0.030 kg/ha) was 75, the “LOLPE weed control rating” value ([7]; 0.060 kg/ha) was 90 and the “LOLPE weed control rating” value ([7]; 0.120 kg/ha) was 97. For the same molecule, the “LOLPE weed control rating” value ([7]; 0.240 kg/ha) was 99, the “LAMPU weed control rating” value ([8]; 0.030 kg/ha) was 30 and the “LAMPU weed control rating” value ([8]; 0.060 kg/ha) was 90. The “LAMPU weed control rating” value ([8]; 0.120 kg/ha) was 93, the “LAMPU weed control rating” value ([8]; 0.240 kg/ha) was 100 and the “SETVI weed control rating” value ([9]; 0.030 kg/ha) was 35. For the same molecule, the “SETVI weed control rating” value ([9]; 0.060 kg/ha) was 85, the “SETVI weed control rating” value ([9]; 0.120 kg/ha) was 93 and the “SETVI weed control rating” value ([9]; 0.240 kg/ha) was 100. For the same molecule, the “POAAN weed control rating” value ([10]; 0.030 kg/ha) was 95, the “POAAN weed control rating” value ([10]; 0.060 kg/ha) was 95 and the “POAAN weed control rating” value ([10]; 0.120 kg/ha) was 100. The “POAAN weed control rating” value ([10]; 0.240 kg/ha) was 100, the “GALAP weed control rating” value ([11]; 0.120 kg/ha) was 65 and the “GALAP weed control rating” value ([11]; 0.240 kg/ha) was 92. The “STEME weed control rating” value ([12]; 0.030 kg/ha) was 25, the “STEME weed control rating” value ([12]; 0.060 kg/ha) was 98 and the “STEME weed control rating” value ([12]; 0.120 kg/ha) was 98. For the same molecule, the “STEME weed control rating” value ([12]; 0.240 kg/ha) was 100, the “ALOMY weed control rating” value ([13]; 0.030 kg/ha) was 10 and the “ALOMY weed control rating” value ([13]; 0.060 kg/ha) was 35. For the same molecule, the “ALOMY weed control rating” value ([13]; 0.120 kg/ha) was 65, the “ALOMY weed control rating” value ([13]; 0.240 kg/ha) was 90 and the “MATIN weed control rating” value ([14]; 0.030 kg/ha) was 90. For the same molecule, the “MATIN weed control rating” value ([14]; 0.060 kg/ha) was 100, the “MATIN weed control rating” value ([14]; 0.120 kg/ha) was 100 and the “MATIN weed control rating” value ([14]; 0.240 kg/ha) was 100. The “VERPE weed control rating” value ([15]; 0.030 kg/ha) was 70, the “VERPE weed control rating” value ([15]; 0.060 kg/ha) was 90 and the “VERPE weed control rating” value ([15]; 0.120 kg/ha) was 99. For the same molecule, the “VERPE weed control rating” value ([15]; 0.240 kg/ha) was 100.
